Measured values: patent US20250074901A1, “NOVEL HETEROARYL COMPOUNDS” (ICAGEN, LLC, priority 2021, published 2025)

Molecular target: T1, Kv7.2 (Homo sapiens, UniProt O43526)
T1 construct: expressed in transfected cells
Test: Activation of Kv7.2 (in vitro assay, concentration response curve)
Format: cell-based
Conditions: for Emax: Kv7.2 activation max %; for EC50: activation of Kv7.2
In short: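 EC50 is the half-maximal effective concentration, relative to the Emax observed for each compound in this in vitro assay. It was derived from concentration–response curves of the agonistic effect measured over a series of concentrations.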

Compound | Emax | EC50
O=C(NCc1ccnc(OC(F)F)c1)NC(C(F)(F)F)C(F)(F)F [Example 228, 1-[[2-(difluoromethoxy)pyridin-4-yl]methyl]-3-(1,1,1,3,3,3-hexafluoropropan-2-yl)urea] | 58% | 260 nM
O=C(NCc1ccnc(OCF)c1)Nc1ccc(F)c(F)c1 [Example 249, 1-(3,4-difluorophenyl)-3-[[2-(fluoromethoxy)pyridin-4-yl]methyl]urea] | 43% | 260 nM
O=C(NCc1ccnc(OC(F)F)c1)NC1COC(C(F)(F)F)C1 (centres unmarked) [Example 258, 1-[[2-(difluoromethoxy)pyridin-4-yl]methyl]-3-[5-(trifluoromethyl)oxolan-3-yl]urea] | 53% | 500 nM
O=C(NCc1ccnc(OCC2CC2)c1)N[C@H]1C[C@H](C(F)(F)F)C1 [Example 55, 1-[[2-(cyclopropylmethoxy)pyridin-4-yl]methyl]-3-[(1r,3r)-3-(trifluoromethyl)cyclobutyl]urea] | 51% | 300 nM
O=C(NCc1ccnc(OC(F)F)c1)NC1CCC(OC(F)F)C1 (centres unmarked) [Example 264, 1-[3-(difluoromethoxy)cyclopentyl]-3-[[2-(difluoromethoxy)pyridin-4-yl]methyl]urea] | 49% | 430 nM
C[C@]1(O)CCC[C@@H]1NC(=O)NCc1ccnc(OC(F)F)c1 [Example 184, 1-[[2-(difluoromethoxy)pyridin-4-yl]methyl]-3-[(1S,2S)-2-hydroxy-2-methylcyclopentyl]urea] | 55% | 1810 nM
CC1(C)CC(NC(=O)NCc2ccnc(OC(F)F)c2)C1 [Example 188, 1-[[2-(difluoromethoxy)pyridin-4-yl]methyl]-3-(3,3-dimethylcyclobutyl)urea] | 82% | 50 nM
CC1(C)C[C@H](NC(=O)NCc2ccnc(OC(F)F)c2)[C@@H]1O (racemic) [Example 81, 1-[[2-(difluoromethoxy)pyridin-4-yl]methyl]-3-[rac-(1R,2S)-2-hydroxy-3,3-dimethylcyclobutyl]urea] | 73% | 1360 nM
C[C@H](F)COc1cc(CNC(=O)N[C@H]2C[C@H](C(F)(F)F)C2)ccn1 [Example 202, 1-[[2-[(2S)-2-fluoropropoxy]pyridin-4-yl]methyl]-3-[(1r,3r)-3-(trifluoromethyl)cyclobutyl]urea] | 57% | 260 nM
O=C(NCc1ccnc(OC(F)F)n1)N[C@H]1C[C@H](C(F)(F)F)C1 [Example 243, 1-[[2-(difluoromethoxy)pyrimidin-4-yl]methyl]-3-[(1r,3r)-3-(trifluoromethyl)cyclobutyl]urea] | 42% | 760 nM
O=C(NCc1ccnc(OC(F)F)c1)NC1CC(C2CC2)C1 (centres unmarked) [Example 77, 1-(3-cyclopropylcyclobutyl)-3-[[2-(difluoromethoxy)pyridin-4-yl]methyl]urea] | 62% | 90 nM
O=C(NCc1ccnc(OC(F)F)c1)NCC1CCC1 [Example 13, 1-(cyclobutylmethyl)-3-[[2-(difluoromethoxy)pyridin-4-yl]methyl]urea] | 56% | 330 nM
O=C(NCc1ccnc(-n2ccnc2)c1)NC1CCCC(C2CC2)C1 (centres unmarked) [Example 8, 1-(3-cyclopropylcyclohexyl)-3-[(2-imidazol-1-ylpyridin-4-yl)methyl]urea] | 52% | 1520 nM
O=C(NCc1ccnc(OCF)c1)N[C@@H]1[C@H]2CCC(F)(F)[C@H]21 (racemic) [Example 176, 1-[[2-(fluoromethoxy)pyridin-4-yl]methyl]-3-[rac-(1R,5S,6R)-2,2-difluoro-6-bicyclo[3.1.0]hexanyl]urea] | 62% | 890 nM
O=C(NCc1ccnc(OC(F)F)c1)N[C@H]1C[C@H](F)C1 [Example 67, 1-[[2-(difluoromethoxy)pyridin-4-yl]methyl]-3-((1r,3r)-3-fluorocyclobutyl)urea] | 52% | 1870 nM
CC1(NC(=O)NCc2ccnc(OC(F)F)c2)CCC(F)(F)C1 (centres unmarked) [Example 142, 1-[[2-(difluoromethoxy)pyridin-4-yl]methyl]-3-(3,3-difluoro-1-methylcyclopentyl)urea] | 40% | 1030 nM
O=C(NCc1ccnc(OC(F)F)c1)NCC12CC(F)(C1)C2 [Example 32, 1-[[2-(difluoromethoxy)pyridin-4-yl]methyl]-3-[(3-fluoro-1-bicyclo[1.1.1]pentanyl)methyl]urea] | 42% | 830 nM
O=C(NCc1ccnc(-c2cnco2)c1)N[C@H]1C[C@@H]2CC[C@H]1C2 (racemic) [Example 28, 1-[[2-(1,3-oxazol-5-yl)pyridin-4-yl]methyl]-3-[rac-(1R,2R,4S)-2-bicyclo[2.2.1]heptanyl]urea] | 76% | 8280 nM
O=C(NCc1ccnc(OC(F)F)c1)NC1(C23CC(C2)C3)CC1 [Example 246, 1-[1-(1-bicyclo[1.1.1]pentanyl)cyclopropyl]-3-[[2-(difluoromethoxy)pyridin-4-yl]methyl]urea] | 60% | 540 nM

Compound | Emax | EC50
O=C(NCc1ccnc(OCC(F)(F)F)c1)NC12CCC(F)(CC1)CC2 [Example 180, 1-(4-fluoro-1-bicyclo[2.2.2]octanyl)-3-[[2-(2,2,2-trifluoroethoxy)pyridin-4-yl]methyl]urea] | 72% | 310 nM
O=C(NCc1ccnc(OC(F)F)c1)NC1CC2CCCC2C1 (centres unmarked) [Example 78, 1-(1,2,3,3a,4,5,6,6a-octahydropentalen-2-yl)-3-[[2-(difluoromethoxy)pyridin-4-yl]methyl]urea] | 62% | 20 nM
O=C(NCc1ccnc(OCC(F)(F)F)c1)NC1CC(F)(F)C1 [Example 157, 1-(3,3-difluorocyclobutyl)-3-[[2-(2,2,2-trifluoroethoxy)pyridin-4-yl]methyl]urea] | 50% | 380 nM
O=C(NCc1ccnc(OC(F)F)c1)N[C@@H](C1CC1)C(F)(F)F [Example 135, 1-[(1S)-1-cyclopropyl-2,2,2-trifluoroethyl]-3-[[2-(difluoromethoxy)pyridin-4-yl]methyl]urea] | 68% | 1110 nM
CC1CC(NC(=O)NCc2ccnc(OC(F)F)c2)C1 (centres unmarked) [Example 65, 1-[[2-(difluoromethoxy)pyridin-4-yl]methyl]-3-(3-methylcyclobutyl)urea] | 76% | 450 nM
O=C(NCc1ccnc(OC(F)F)c1)N[C@H]1C[C@@H]2CC(F)(F)C[C@@H]2C1 [Example 195, 1-[[2-(difluoromethoxy)pyridin-4-yl]methyl]-3-[(2r,3aR,6aS)-5,5-difluoro-2,3,3a,4,6,6a-hexahydro-1H-pentalen-2-yl]urea] | 51% | 290 nM
O=C(Nc1cc(F)cc(F)c1)NC(CO)c1ccnc(OCC(F)(F)F)c1 (centres unmarked) [Example 256, 1-(3,5-difluorophenyl)-3-[2-hydroxy-1-[2-(2,2,2-trifluoroethoxy)pyridin-4-yl]ethyl]urea] | 84% | 30 nM
O=C(NCc1ccnc(OCC(F)(F)F)c1)NC1CC(C2CC2)C1 (centres unmarked) [Example 235, 1-(3-cyclopropylcyclobutyl)-3-[[2-(2,2,2-trifluoroethoxy)pyridin-4-yl]methyl]urea] | 88% | 80 nM
O=C(NCc1ccnc(OCC(F)CF)c1)N[C@H]1CC[C@@H](C(F)(F)F)C1 (mixture of isomers) [Example 225, 1-[[2-(2,3-difluoropropoxy)pyridin-4-yl]methyl]-3-[rac-(1R,3S)-3-(trifluoromethyl)cyclopentyl]urea] | 52% | 310 nM
O=C(NCc1ccnc(OC(F)F)c1)NC1(C2CCC2)CC1 [Example 50, 1-(1-cyclobutylcyclopropyl)-3-[[2-(difluoromethoxy)pyridin-4-yl]methyl]urea] | 56% | 300 nM
O=C(NCc1ccnc(OCC(F)(F)F)c1)N[C@H]1C[C@H](C(F)F)C1 [Example 293, 1-[(1r,3r)-3-(difluoromethyl)cyclobutyl]-3-[[2-(2,2,2-trifluoroethoxy)pyridin-4-yl]methyl]urea] | 93% | 610 nM
O=C(NC(CO)c1ccnc(OC(F)F)c1)N[C@H]1C[C@H](C(F)(F)F)C1 (some centres unmarked) [Example 91, 1-[1-[2-(difluoromethoxy)pyridin-4-yl]-2-hydroxyethyl]-3-[(1r,3r)-3-(trifluoromethyl)cyclobutyl]urea] | 82% | 1260 nM
CC(F)(F)c1cc(CNC(=O)NC23CC(F)(C2)C3)ccn1 [Example 200, 1-[[2-(1,1-difluoroethyl)pyridin-4-yl]methyl]-3-(3-fluoro-1-bicyclo[1.1.1]pentanyl)urea] | 54% | 4930 nM
O=C(NCc1ccnc(OC(F)F)c1)N[C@H]1CC[C@H](C(F)(F)F)C1 (single isomer, unassigned) [Example 207] | 58% | 230 nM
O=C(NCc1ccnc(OC(F)F)c1)Nc1cncc(Cl)c1 [Example 161, 1-(5-chloropyridin-3-yl)-3-[[2-(difluoromethoxy)pyridin-4-yl]methyl]urea] | 43% | 1050 nM
O=C(NCc1ccnc(OC(F)F)c1)NCC(C(F)(F)F)C(F)(F)F [Example 252, 1-[[2-(difluoromethoxy)pyridin-4-yl]methyl]-3-[3,3,3-trifluoro-2-(trifluoromethyl)propyl]urea] | 73% | 720 nM
O=C(NCc1ccnc(OC(F)F)c1)NCC1CC(F)C1 (centres unmarked) [Example 89, 1-[[2-(difluoromethoxy)pyridin-4-yl]methyl]-3-[(3-fluorocyclobutyl)methyl]urea] | 46% | 1040 nM
O=C(NCc1ccnc(-n2cccn2)c1)NC12CC(C(F)(F)F)(C1)C2 [Example 6, 1-[(2-pyrazol-1-ylpyridin-4-yl)methyl]-3-[3-(trifluoromethyl)-1-bicyclo[1.1.1]pentanyl]urea] | 58% | 1140 nM
